Measured values from US20090232909A1, “Method for determining physiological effects of hemoglobin” (priority 1999, published 2009).
Entries after “also recorded” stand apart in the source; their conditions may differ.

Experiments:
RBC membrane thiols = experiment: Alkylation of IOV proteins with 14C-iodoacetamide; type: biochemical; conditions: DIDS-modified vs unmodified IOVs
Source text: FIG. 8G is a fluorographic image of proteins on an SDS-polyacrylamide gel following electrophoresis. […] The position of AE1 on the gel, determined by Western blotting, is indicated. (n=3-8 for A-F).
Thus, inhibition of transnitrosylation by DIDS supports the conclusion that AE1 is the principal acceptor of NO groups transferred from SNO-Hb to the RBC membrane.

[1] = tested on: inside-out vesicles (IOV); experiment: Transnitrosylation of inside-out vesicles (IOV) by SNO-Hb; type: biochemical; conditions: IOVs (or source RBCs) treated before incubation with SNO-Hb
Protocol: RBCs derived from fresh venous blood and suspended in oxygen-purged phosphate-buffered saline (PBS) were exposed in gas-tight vials to NO, added as aliquots of oxygen-purged NO-saturated PBS to yield the specified NO:heme ratios based on spectrophotometric assessment of heme content. Exposure to NO was for 5 mins followed by rinses in PBS at 21% O2. RBCs were lysed in 10 mM MOPS, 0.1 mM DTPA, pH 7, followed by centrifugation at 20,000×g for 10 mins to produce membrane and cytosolic fractions, which were solubilized in 1% TX-100. Quantification of NO groups was by photolysis/chemiluminescence (McMahon, T. J. & Stamler, J. S., Meth. Enzymol. 301:99-114, 1999). SNO content was measured as NO removed by treating sample aliquots for 5 mins with HgCl2 at 5-fold molar excess over estimated thiol content (Gow, A. J. & Stamler, J. S., Nature 391:169-173, 1998; Gow, A. J. et al., Proc. Natl. Acad. Sci. USA 96:9027-9032, 1999; McMahon, T. J. & Stamler, J. S., Meth. Enzymol. 301:99-114, 1999). IOVs were prepared from outdated RBCs following Kondo (Kondo, T., Meth. Enzymol. 171:217-225, 1989) and stripped of peripheral membrane-bound proteins by washing for 60 mins in 0.5 M NaCl/100 mM Tris at pH 8. Chymotrypsin treatment of IOVs was for 15 mins at pH 7 and 37° C. with 5 U enzyme/mg IOV protein. For transnitrosylation, IOVs were incubated with SNO-Hb (50 nmoles SNO-Hb/mg IOV protein, about 10-fold excess over AE1) for 15 mins at pH 7 and 37° C. SNO-Hb was prepared from free or immobilized HbA (Apex) by selective S-nitrosylation of cysβ93 with S-nitroso-cysteine (Jia, L. et al., Nature 380:221-226, 1996; Stamler, J. S. et al., Science 276:2034-2037, 1997; McMahon, T. J. & Stamler, J. S., Meth. Enzymol. 301:99-114, 1999). Hb was immobilized on cyanogen bromide-activated Sepharose 4b.
Immunoprecipitation was carried out by incubation of TX-100 or NP-40 extracts with antibodies followed by protein G-Sepharose. […] Binding of SNO-Hb to IOVs was assessed in 10 mM MOPS buffer, pH 7, at room temperature and 21% O2. Incubation was for 15 mins before IOVs were solubilized in 1% TX-100, and heme content was assessed spectrophotometrically. When employed, RBCs were treated for 60 mins with DIDS (0.1 mM; calculated 10-fold molar excess over AE1), then washed thoroughly to remove unreacted DIDS. […]
IOVs incubated with SNO-Hb and washed at pH 8 to remove bound Hb incorporated about 450 pmol NO/milligram of TX-100-extracted IOV protein (FIG. 7D). […] It is important to note that SNO was not detected in extracts of IOVs exposed to NO in the absence of Hb (not shown). […] Following centrifugal separation, washes at pH 7 and solubilization in TX-100, extracts of IOVs were free of Hb as assessed by spectrophotometric detection of heme.

## O=S(=O)(O)c1cc(N=C=S)ccc1C=Cc1ccc(N=C=S)cc1S(=O)(=O)O [DIDS, 4,4′-diisothiocyanatostilbene-2,2′-disulfonic acid]
RBC membrane thiols
  direct modification of sulfhydryls: did not modify sulfhydryls directly; also recorded: does not directly reduce reactivity
[1]
  effect of prior treatment on transfer of NO groups from SNO-Hb to IOVs: reduced significantly; also recorded: greatly reduced
